Consider 6 molecules from paper PMC6222853 (Molecules : A Journal of Synthetic Chemistry and Natural …, 2018).

The target in assay [1] is T1, electric eel AChE (Electrophorus electricus, UniProt O42275).
T1 construct: purchased Sigma-Aldrich (Saint Louis, MO, USA)
In words: biochemical. Conditions: in vitro, electric eel enzyme; read-out: AChE inhibition IC50. The method, then:
The AChE inhibitory properties of the compounds were determined using a 96-well microplate colorimetric method as described by Ellman et al.. Donepezil was used as a positive control.

The target of assay [2] is T2, egg albumin (Gallus gallus, UniProt P01012).
T2 sequence (P01012 1-386): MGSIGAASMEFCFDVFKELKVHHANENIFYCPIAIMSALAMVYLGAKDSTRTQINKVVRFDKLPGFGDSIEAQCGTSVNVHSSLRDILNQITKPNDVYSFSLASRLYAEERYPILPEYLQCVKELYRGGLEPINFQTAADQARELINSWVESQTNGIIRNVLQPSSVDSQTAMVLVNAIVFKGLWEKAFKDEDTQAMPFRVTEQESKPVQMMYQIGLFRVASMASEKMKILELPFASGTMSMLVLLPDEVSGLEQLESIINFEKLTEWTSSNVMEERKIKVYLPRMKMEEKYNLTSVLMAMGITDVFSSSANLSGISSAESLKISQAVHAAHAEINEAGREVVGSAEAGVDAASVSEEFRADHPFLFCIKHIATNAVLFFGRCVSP
Nature of the assay: Albumin denaturation inhibition assay. As to conditions: for IC50: egg albumin, heated at 70 °C, in vitro. The arrangement: species or system chicken. The method, then:
Albumin denaturation inhibition effects of the compounds were confirmed through a previously described method. Egg albumin was used in this experiment, and the reaction mixture contained 0.1 mL of egg albumin, 0.7 mL of phosphate-buffered saline (PBS), and varying concentrations of different compounds (0.5 mL). Mili-Q water (0.5 mL) instead of the compounds was used in the negative control. The reaction mixtures were incubated at 37 °C for 15 min and heated at 70 °C for 5 min. The absorbance was measured at 660 nm after cooling at room temperature. Ketorolac was used as a standard drug. Percentage of albumin denaturation inhibition was calculated according to the following formula:Percentage of inhibition = (1 − (A/B)) × 100, where A is the absorbance of the test sample, and B is the absorbance of the negative control.

Assay [3] deals with T3, COX-2 (Mus musculus, UniProt Q05769).
T3 construct: treated with 500 ng/mL LPS for the next 24 h to induce the production of COX-2; endogenous in cells; host or cells: RAW 264.7 cells, LPS-induced
T3 sequence (Q05769 18-604): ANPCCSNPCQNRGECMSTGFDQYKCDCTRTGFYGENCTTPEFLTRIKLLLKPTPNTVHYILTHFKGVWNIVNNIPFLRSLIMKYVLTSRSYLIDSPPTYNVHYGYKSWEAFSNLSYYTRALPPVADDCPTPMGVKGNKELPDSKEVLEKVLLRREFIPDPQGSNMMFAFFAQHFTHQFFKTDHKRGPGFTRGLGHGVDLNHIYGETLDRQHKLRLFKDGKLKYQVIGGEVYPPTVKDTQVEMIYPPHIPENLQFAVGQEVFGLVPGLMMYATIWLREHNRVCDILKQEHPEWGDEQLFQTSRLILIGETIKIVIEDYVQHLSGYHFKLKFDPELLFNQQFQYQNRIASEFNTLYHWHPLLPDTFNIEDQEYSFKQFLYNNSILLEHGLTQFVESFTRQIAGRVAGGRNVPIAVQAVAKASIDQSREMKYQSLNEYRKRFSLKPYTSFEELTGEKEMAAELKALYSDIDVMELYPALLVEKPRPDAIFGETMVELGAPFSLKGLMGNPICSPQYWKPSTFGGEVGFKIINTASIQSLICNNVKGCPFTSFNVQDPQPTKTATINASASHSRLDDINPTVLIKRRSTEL
In words: Cell-based assay for COX-2 inhibition (PGE2 ELISA). As to conditions: LPS-induced RAW 264.7 cells, conversion of arachidonic acid to PGE2. The method, then:
This assay was carried out according to the method described by Stanikunaite et al. with some modifications. In brief, RAW 264.7 cells (2 × 10^5 cells/well) were cultured in a 24-well plate in DMEM supplemented with 10% FBS and incubated at 37 °C for 24 h for seeding. After seeding, cells were washed with PBS (400 µL) and treated with 500 ng/mL LPS for the next 24 h to induce the production of COX-2. Then, the induced cells were washed thoroughly with PBS to remove LPS completely and treated with different concentrations of test compounds for 4 h. Arachidonic acid (300 µM) was added and the cells were further incubated for 30 min. Next, the PGE2 levels were determined in the culture supernatant using a PGE2 ELISA kit (Cayman Chemical Co., Ann Arbor, MI, USA) according to the manufacturer’s instructions. COX-2 enzyme activity was determined by the conversion of exogenous arachidonic acid to PGE2, and was expressed as the percentage of negative control (without test compounds). Finally, IC50 values were calculated for all the tested compounds. Indomethacin was used as a positive control.

Assay [4] concerns LPS-stimulated RAW 264.7 cells. In words: Nitrite inhibition assay in LPS-stimulated cells. In kind it is cell-based. As to conditions: Mus musculus; for IC50: RAW264.7, 24 h, read-out: Nitrite Inhibition (IC50 Value). As to the method:
As an indicator of NO synthesis, nitrite amount was measured in the supernatant of LPS-stimulated RAW 264.7 cells. Cells were plated on a 24-well plate with a density of 2 × 10^5 cells/well. After seeding, cells were treated with LPS (500 ng/mL final concentration) and varying concentrations of the test compounds for 24 h. Ketorolac (200 μM) was used as a standard drug. Then, 100 μL of culture supernatant from each well was mixed with an equal volume of Griess reagent, and incubated at room temperature for 10 min. The formation of an azo compound was measured spectrophotometrically at 550 nm wavelength. Finally, nitrite concentration was determined from a standard curve of sodium nitrite, and nitrite inhibition percentages of test compounds and the reference drug were calculated based on the amount of nitrite produced by the control cells (treated only with LPS).

For assay [5], the target named is T4, yeast α-glucosidase (Saccharomyces cerevisiae, UniProt P53341).
T4 construct: purchased Sigma-Aldrich (Saint Louis, MO, USA)
Nature of the assay: α-Glucosidase inhibition assay. In kind it is biochemical. As to the method: The α-glucosidase assay was performed with slight modifications of a previous method. In short, 15 µL of the test sample at various concentrations was added to 140 µL of enzyme solution (0.0073 U/mL of α-glucosidase in 0.05 M sodium phosphate buffer containing 100 mM NaCl) in a 96-well plate. Reaction mixtures were incubated at 37 °C for 15 min. Then, 25 µL of 0.7 mM p-nitrophenyl-α-D-glucopyranoside (PNPG) solution in 0.05 M sodium phosphate buffer (pH 6.8) was added to each well.

Assay [6] has as its system RAW 264.7 cells. Nature of the assay: cells. As to conditions: Mus musculus, RAW264.7, 24 h, read-out: Inhibition of cell proliferation, deviation from the control group. It counts as cell-based. As to the method: RAW 264.7 cell viability was evaluated through the MTT assay. Cells were seeded in a 24-well plate at a density of 2 × 10^5 cells/well and incubated with the OP compounds for 24 h. Ketroloac (200 μM) was also assessed to determine its cytotoxicity on RAW 264.7 cells. After incubation, the supernatant was removed, and the cells were washed with PBS. Aliquots of 100 μL of MTT solution (0.5 mg/mL in PBS) were added to each well, and the plate was incubated at 37 °C for 3 h. Afterwards, dimethyl sulfoxide (400 μL) was added to each well, and the plate was shaken for 10 min at room temperature to dissolve the formazan crystals. The absorbance was measured at 570 nm wavelength using a microplate reader, and the cell viability was calculated from the absorbance of the treated versus untreated control cells.

T4 sequence (P53341 whole entry): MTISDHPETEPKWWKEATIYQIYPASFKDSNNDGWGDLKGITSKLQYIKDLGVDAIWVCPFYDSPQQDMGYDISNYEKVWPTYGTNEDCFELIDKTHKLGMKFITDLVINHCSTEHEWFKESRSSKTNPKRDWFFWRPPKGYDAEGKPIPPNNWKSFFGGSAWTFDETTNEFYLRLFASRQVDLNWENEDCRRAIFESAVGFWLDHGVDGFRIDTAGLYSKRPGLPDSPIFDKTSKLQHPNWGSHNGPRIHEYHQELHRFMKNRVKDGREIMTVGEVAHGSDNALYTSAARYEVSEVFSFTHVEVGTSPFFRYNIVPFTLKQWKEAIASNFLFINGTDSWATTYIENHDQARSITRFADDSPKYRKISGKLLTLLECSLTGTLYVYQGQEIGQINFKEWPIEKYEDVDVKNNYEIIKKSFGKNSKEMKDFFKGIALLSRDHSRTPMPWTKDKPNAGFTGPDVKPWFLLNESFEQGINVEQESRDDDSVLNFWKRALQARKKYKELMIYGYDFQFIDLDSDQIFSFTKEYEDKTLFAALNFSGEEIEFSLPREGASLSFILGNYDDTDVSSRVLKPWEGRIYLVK
T1 sequence (O42275 24-633): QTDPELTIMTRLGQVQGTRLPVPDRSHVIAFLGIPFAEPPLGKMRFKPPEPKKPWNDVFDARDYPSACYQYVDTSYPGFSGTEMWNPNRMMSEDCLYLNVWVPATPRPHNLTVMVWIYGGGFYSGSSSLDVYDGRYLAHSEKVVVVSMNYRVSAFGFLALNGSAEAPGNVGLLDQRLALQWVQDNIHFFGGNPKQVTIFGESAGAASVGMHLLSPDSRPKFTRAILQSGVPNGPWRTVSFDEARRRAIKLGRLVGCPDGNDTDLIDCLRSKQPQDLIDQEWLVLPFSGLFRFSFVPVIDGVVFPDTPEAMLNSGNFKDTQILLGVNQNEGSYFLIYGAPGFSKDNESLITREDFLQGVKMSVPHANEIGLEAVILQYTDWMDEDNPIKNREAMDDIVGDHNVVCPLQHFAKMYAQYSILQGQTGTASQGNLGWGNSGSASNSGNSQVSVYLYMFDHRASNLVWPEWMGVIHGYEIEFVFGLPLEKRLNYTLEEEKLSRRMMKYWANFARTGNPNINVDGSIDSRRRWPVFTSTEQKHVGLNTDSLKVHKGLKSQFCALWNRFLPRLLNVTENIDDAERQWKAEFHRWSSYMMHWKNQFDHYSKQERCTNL

Consider `CC(C)=CCC/C(C)=C/Cc1cc([C@@H]2CC(=O)c3c(O)cc(O)cc3O2)ccc1O` [GN, 3′-geranyl-naringenin], for which the IC50 in assay [1] came to 12.3 µM; in assay [2], 1.02 µM; in assay [3], 24 µM; in assay [4], 7 µM; in assay [5] it was 5.4 µM.

Turning to `CC(C)=CCC/C(C)=C/Cc1cc(C2CC(=O)c3c(O)cc(O)cc3O2)cc(O)c1O` (centres unmarked) [INB, isonymphaeol-B], the IC50 in assay [1] is 7.23 µM; in assay [2], 0.42 µM; in assay [3] it was 23.8 µM; in assay [4] it was 6.2 µM; in assay [5], 5.12 µM. Besides, in assay [6], the inhibition at 12 µM was 3 to 5%.

As to `CC(C)=CCC/C(C)=C/Cc1c(O)cc2c(c1O)C(=O)C[C@@H](c1ccc(O)c(O)c1)O2` [NA, nymphaeol-A], the IC50 in assay [1] was 7.77 µM; in assay [2], 0.26 µM; in assay [3], 11.7 µM; in assay [4], 3.2 µM; in assay [5], 3.77 µM.

As to `CC(C)=CCC/C(C)=C/Cc1c([C@@H]2CC(=O)c3c(O)cc(O)cc3O2)ccc(O)c1O` [NB, nymphaeol-B], the IC50 came out at 15.1 µM in assay [1]; 0.54 µM in assay [2]; 17.9 µM in assay [3]; 5.4 µM in assay [4]; 5.66 µM in assay [5]. Further, the inhibition at 12 µM in assay [6] lay within 3 to 5%.

In the case of `CC(C)=CCC/C(C)=C/Cc1c([C@@H]2CC(=O)c3c(cc(O)c(CC=C(C)C)c3O)O2)ccc(O)c1O` [NC, nymphaeol-C], the IC50 in assay [1] was 15.7 µM; in assay [2] it was 0.37 µM; in assay [3], 15.4 µM; in assay [4], 2.4 µM; in assay [5], 4.09 µM.

Regarding `O=C(c1ccccc1)c1ccc2n1CCC2C(=O)O` (centres unmarked) [ketorolac, reference compound], the inhibition at 200 µM in assay [2] (at 200 µM) amounted to 52%; in assay [4] (RAW264.7, 200 μM, compared to cells treated only with LPS, read-out: Inhibition of nitrite formation in the supernatant), 26%.
